Earlier results as cited in patent publication US20150133416A1, “Pharmaceutical Composition Comprising Abiraterone Acetate” (Jagotec AG, priority 2012, published 2015).
Where two headings read alike, the source gives them in different places.

How the values were obtained:
[1] = not given; remark: listed apart in the source
[2] = 20 mg delayed release capsules administered with apple sauce

| aqueous solubility | log P | AUC elevation compared with the fasted state ([1]; after a high fat meal) [fold] | Cmax elevation compared with the fasted state ([1]; after a high fat meal) [fold] | AUC elevation compared with the fasted state ([1]; after a low fat meal) [fold] | Cmax elevation compared with the fasted state ([1]; after a low fat meal) [fold] | reduction in Cmax [2] [%] | Compound |
| --- | --- | --- | --- | --- | --- | --- | --- |
| poor | very high | 10 | 17 | 5 | 7 | – | C[C@]12CC[C@H](O)CC1=CC[C@@H]1[C@@H]2CC[C@]2(C)C(c3cccnc3)=CC[C@@H]12 [abiraterone] |
| – | – | – | – | – | – | 25 | COc1ccc2[nH]c([S+]([O-])Cc3ncc(C)c(OC)c3C)nc2c1 (stereo not shown) [omeprazole] |
